In ChEMBL document CHEMBL3352258 (J Med Chem, 2014):
≈ marks a conversion by molar mass, not a printed value. Calls of active or inactive are those of the source. The calls are words filed in the database; no cut-off is given here.

What was measured:
Rattus norvegicus [1] = assay: Stimulation of glucose-induced GLP-1 release in cannulated Sprague-Dawley rat at 0.3 mg/kg, po administered 1 hr prior glucose challenge relative to vehicle-treated control; format: functional, organism-based; design: dose 0.3 mg/kg
Cynomolgus monkey = assay: Toxicity in cynomolgus monkey at plasma concentration 20 uM by electrophysiology study; format: organism-based, Macaca fascicularis; settings: in vivo
Rattus norvegicus [2] = assay: Cmax in Sprague-Dawley rat at 5 mg/kg, po; format: ADME, organism-based; design: dose 5 mg/kg, route oral; settings: in vivo
Rattus norvegicus [3] = assay: Half life in Sprague-Dawley rat at 5 mg/kg, po; format: ADME, organism-based; design: dose 5 mg/kg, route oral; settings: in vivo
Homo sapiens [4] = assay: Antidiabetic activity in human assessed as reduction in 24 hrs glucose AUC at 0.1 to 120 mg, po measured on day 1; format: functional, organism-based
Homo sapiens [5] = assay: Antidiabetic activity in human assessed as increase in total GLP1 AUC at 10 mg, po measured on day 1; format: functional
[6] = Clearance in Sprague-Dawley rat at 1 mg/kg, iv; format: ADME, organism-based; design: dose 1 mg/kg, route intravenous; settings: in vivo
Salmonella typhimurium = assay: Genotoxicity in Salmonella typhimurium; format: toxicity, organism-based; settings: salmonella enterica subsp. enterica serovar typhimurium
Mus musculus [7] = assay: Antidiabetic activity in db/db mouse assessed as reduction in blood glucose level at 0.03 mg/kg, po qd administered 1 hr prior glucose challenge measured after 21 days by oral glucose tolerance test; format: functional; design: scale not given: the % may be the effect or the level left
Homo sapiens [8] = assay: Antidiabetic activity in human assessed as increase in total GLP1 AUC at 0.6 mg, po measured on day 1; format: functional
Mus musculus [9] = assay: Antidiabetic activity in C57BL/6J mouse assessed as reduction in glucose AUC at 0.3 mg/kg, po by oral glucose tolerance test relative to vehicle-treated control; format: functional; design: scale not given: the % may be the effect or the level left
Mus musculus [10] = assay: Antidiabetic activity in C57BL/6J mouse assessed as reduction in glucose AUC at 0.1 mg/kg, po by oral glucose tolerance test relative to vehicle-treated control; format: functional; design: scale not given: the % may be the effect or the level left
[11] = Volume of distribution at steady state in Sprague-Dawley rat at 1 mg/kg, iv; format: ADME, organism-based; design: dose 1 mg/kg, route intravenous; settings: in vivo, read-out: Vdss
Mus musculus [12] = assay: Antidiabetic activity in db/db mouse assessed as reduction in blood glucose level at 0.01 mg/kg, po qd administered 1 hr prior glucose challenge measured after 21 days by oral glucose tolerance test; format: functional; design: scale not given: the % may be the effect or the level left
Mus musculus [13] = assay: Antidiabetic activity in C57BL/6J mouse assessed as reduction in glucose AUC at 0.03 mg/kg, po by oral glucose tolerance test relative to vehicle-treated control; format: functional; design: scale not given: the % may be the effect or the level left
Homo sapiens [14] = assay: Toxicity in human at 0.1 to 120 mg, po; format: organism-based; settings: in vivo
Oryctolagus cuniculus = organism: Oryctolagus cuniculus; assay: Toxicity in rabbit at plasma concentration 20 uM by electrophysiology study; format: organism-based; settings: in vivo
[15] = biological target: T1, Nuclear receptor subfamily 1 group I member 2 (Homo sapiens, UniProt O75469); assay: Activation of PXR (unknown origin); format: ADME
T1 sequence (O75469 whole entry): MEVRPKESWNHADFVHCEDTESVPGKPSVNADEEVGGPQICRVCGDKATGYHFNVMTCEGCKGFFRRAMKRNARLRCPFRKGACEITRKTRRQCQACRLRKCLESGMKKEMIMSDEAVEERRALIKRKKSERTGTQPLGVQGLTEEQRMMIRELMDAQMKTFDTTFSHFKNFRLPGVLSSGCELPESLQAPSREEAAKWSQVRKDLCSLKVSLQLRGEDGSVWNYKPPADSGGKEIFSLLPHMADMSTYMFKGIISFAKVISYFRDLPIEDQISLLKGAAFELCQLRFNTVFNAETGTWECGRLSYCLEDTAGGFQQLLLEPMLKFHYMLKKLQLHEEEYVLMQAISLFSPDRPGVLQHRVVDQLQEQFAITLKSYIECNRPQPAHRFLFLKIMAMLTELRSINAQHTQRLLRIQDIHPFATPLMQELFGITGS

[16] = Protein binding in human plasma; format: ADME, cell-free; settings: read-out: PPB (converted)
[17] = Half life in human liver microsomes; format: ADME
Mus musculus [18] = assay: Antidiabetic activity in db/db mouse assessed as increase in fasting plasma insulin level at 0.01 to 0.3 mg/kg, po qd administered 1 hr prior glucose challenge measured after 21 days; format: functional, organism-based
Rattus norvegicus [19] = assay: AUC (total) in Sprague-Dawley rat at 5 mg/kg, po; format: ADME, organism-based, Plasma; design: dose 5 mg/kg, route oral; settings: in vivo
Homo sapiens [20] = assay: Antidiabetic activity in po dosed human assessed as increase in 24 hrs GLP1 AUC measured on day 1; format: functional, organism-based
Rattus norvegicus [21] = assay: Tmax in Sprague-Dawley rat at 5 mg/kg, po; format: ADME, organism-based; design: dose 5 mg/kg, route oral; settings: in vivo
HepG2 = assay: Cytotoxicity against human HepG2 cells at 40 uM; format: cell-based; settings: hepg2, 40 µM
Mus musculus [22] = assay: Antidiabetic activity in db/db mouse assessed as reduction in blood glucose level at 3 mg/kg, po qd administered 1 hr prior glucose challenge measured after 21 days by oral glucose tolerance test; format: functional; design: scale not given: the % may be the effect or the level left
[23] = Solubility of the compound at pH 6.5; format: physicochemical; settings: buffer
[24] = Oral bioavailability in Sprague-Dawley rat at 5 mg/kg administered as suspension; format: ADME, organism-based; settings: in vivo
Mus musculus [25] = assay: Antidiabetic activity in C57BL/6J mouse assessed as reduction in glucose AUC at 1 mg/kg, po by oral glucose tolerance test relative to vehicle-treated control; format: functional; design: scale not given: the % may be the effect or the level left
Rattus norvegicus [26] = assay: Stimulation of glucose-induced GLP-1 release in cannulated Sprague-Dawley rat at 0.3 mg/kg, po administered 1 hr prior glucose challenge in presence of DPP4 inhibitor relative to vehicle-treated control; format: functional, organism-based; design: dose 0.3 mg/kg
Mus musculus [27] = assay: Antidiabetic activity in db/db mouse assessed as reduction in blood glucose level at 30 mg/kg, po qd administered 1 hr prior glucose challenge measured after 21 days by oral glucose tolerance test; format: functional; design: scale not given: the % may be the effect or the level left
[28] = Terminal half life in human at 0.1 to 120 mg, po; format: ADME, organism-based; settings: in vivo, read-out: beta t1/2 (converted)
[29] = Half life in mouse; format: ADME, organism-based; settings: in vivo
[30] = Oral bioavailability in Sprague-Dawley rat at 5 mg/kg administered as HMPC SDD formulation; format: ADME, organism-based; settings: in vivo
[31] = biological target: T2, Glucose-dependent insulinotropic receptor (Homo sapiens, UniProt Q8TDV5); assay: Agonist activity at human GPR119
T2 sequence (Q8TDV5 whole entry): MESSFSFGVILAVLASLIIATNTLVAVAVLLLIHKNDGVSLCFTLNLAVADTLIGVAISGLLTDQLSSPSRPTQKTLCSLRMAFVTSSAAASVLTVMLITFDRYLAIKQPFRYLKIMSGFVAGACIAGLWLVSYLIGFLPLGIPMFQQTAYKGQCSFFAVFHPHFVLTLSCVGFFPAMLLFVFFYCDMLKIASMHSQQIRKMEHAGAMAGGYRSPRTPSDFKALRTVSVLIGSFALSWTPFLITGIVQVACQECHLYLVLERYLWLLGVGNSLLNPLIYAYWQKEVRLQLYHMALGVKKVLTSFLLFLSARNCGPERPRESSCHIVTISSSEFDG

[32] = Inhibition of cytochrome P450 (unknown origin); format: ADME, Homo sapiens
[33] = Solubility of the compound in 50% PEG400/ 50% PBS solution; format: physicochemical
[34] = Solubility of the compound at pH 1; format: physicochemical; settings: buffer
hERG (KCNH2) = hERG (KCNH2) (Homo sapiens, UniProt Q12809); assay: Inhibition of human ERG at 10 uM by patch clamp assay
Chain of hERG (KCNH2) (Q12809 whole entry): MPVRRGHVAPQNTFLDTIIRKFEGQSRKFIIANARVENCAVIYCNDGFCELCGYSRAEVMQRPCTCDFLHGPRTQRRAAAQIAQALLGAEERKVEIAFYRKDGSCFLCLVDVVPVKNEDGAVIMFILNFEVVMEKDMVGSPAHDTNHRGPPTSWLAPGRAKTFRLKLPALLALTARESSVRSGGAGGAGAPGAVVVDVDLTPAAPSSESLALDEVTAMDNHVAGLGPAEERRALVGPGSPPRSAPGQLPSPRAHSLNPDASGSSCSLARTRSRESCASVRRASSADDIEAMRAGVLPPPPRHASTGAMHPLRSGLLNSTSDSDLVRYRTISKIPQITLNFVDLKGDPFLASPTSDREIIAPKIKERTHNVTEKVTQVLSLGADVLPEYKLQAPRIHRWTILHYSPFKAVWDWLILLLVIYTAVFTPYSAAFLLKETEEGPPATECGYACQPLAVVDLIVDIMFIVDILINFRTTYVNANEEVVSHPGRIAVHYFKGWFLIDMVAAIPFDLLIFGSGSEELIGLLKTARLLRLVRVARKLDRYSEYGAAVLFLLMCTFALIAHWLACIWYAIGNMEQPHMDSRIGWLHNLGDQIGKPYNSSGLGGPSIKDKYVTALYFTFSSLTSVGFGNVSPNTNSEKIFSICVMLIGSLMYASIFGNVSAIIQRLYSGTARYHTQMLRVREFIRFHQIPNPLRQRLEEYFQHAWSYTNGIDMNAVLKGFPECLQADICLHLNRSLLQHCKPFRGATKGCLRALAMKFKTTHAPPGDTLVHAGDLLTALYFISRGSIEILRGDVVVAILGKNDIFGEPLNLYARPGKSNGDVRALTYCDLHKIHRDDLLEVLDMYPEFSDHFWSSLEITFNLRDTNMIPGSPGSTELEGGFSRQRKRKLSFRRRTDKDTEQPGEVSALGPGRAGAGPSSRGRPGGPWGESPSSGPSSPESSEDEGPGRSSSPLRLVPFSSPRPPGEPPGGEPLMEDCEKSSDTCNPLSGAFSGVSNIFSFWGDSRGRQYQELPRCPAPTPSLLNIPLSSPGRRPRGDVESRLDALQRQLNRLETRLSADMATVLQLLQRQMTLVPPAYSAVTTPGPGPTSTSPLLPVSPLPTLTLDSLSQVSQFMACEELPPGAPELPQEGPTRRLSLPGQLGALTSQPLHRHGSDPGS

[35] = Permeability of the compound across human Caco2 cells; format: ADME, cell-based; settings: Caco-2, read-out: permeability
Mus musculus [36] = assay: Antidiabetic activity in db/db mouse assessed as reduction in glucose AUC at 3 mg/kg, po qd administered 1 hr prior glucose challenge measured after 21 days by oral glucose tolerance test relative to control; format: functional; design: scale not given: the % may be the effect or the level left
[37] = Permeability of the compound by PAMPA assay; format: ADME; settings: read-out: permeability
Mus musculus [38] = assay: Antidiabetic activity in db/db mouse assessed as HbA1C level at 30 mg/kg, po qd administered 1 hr prior glucose challenge measured after 21 days by oral glucose tolerance test (reference value: 2.8%); format: functional
[39] = Protein binding in rat plasma; format: ADME, cell-free; settings: read-out: PPB
Mus musculus [40] = assay: Antidiabetic activity in db/db mouse assessed as reduction in HbA1C level at 3 mg/kg, po qd administered 1 hr prior glucose challenge measured after 21 days by oral glucose tolerance test relative to control; format: functional; design: scale not given: the % may be the effect or the level left
[41] = AUC in C57BL/6 mouse at 30 mg/kg, po; format: ADME, organism-based; design: dose 30 mg/kg, route oral; settings: plasma
[42] = Cmax in C57BL/6 mouse at 30 mg/kg, po after 2 hrs; format: ADME, organism-based; design: dose 30 mg/kg, route oral; settings: in vivo
[43] = Terminal half life in C57BL/6 mouse at 30 mg/kg, po; format: ADME, organism-based; design: dose 30 mg/kg, route oral; settings: in vivo, read-out: beta t1/2 (converted)
Mus musculus [44] = assay: Antidiabetic activity in db/db mouse assessed as reduction in HbA1C level at 0.3 mg/kg, po qd administered 1 hr prior glucose challenge measured after 21 days by oral glucose tolerance test relative to control; format: functional; design: scale not given: the % may be the effect or the level left
[45] = biological target: T3, Glucose-dependent insulinotropic receptor (Homo sapiens) (UniProt Q8TDV5); assay: Intrinsic activity at human GPR119 relative to control
T3 sequence (whole entry): T2 sequence (Q8TDV5 whole entry)

Mus musculus [46] = assay: Antidiabetic activity in db/db mouse assessed as reduction in glucose AUC at 30 mg/kg, po qd administered 1 hr prior glucose challenge measured after 21 days by oral glucose tolerance test relative to control; format: functional; design: scale not given: the % may be the effect or the level left
Mus musculus [47] = assay: Antidiabetic activity in db/db mouse assessed as reduction in blood glucose level at 0.3 mg/kg, po qd administered 1 hr prior glucose challenge measured after 21 days by oral glucose tolerance test; format: functional; design: scale not given: the % may be the effect or the level left
Mus musculus [48] = assay: Antidiabetic activity in db/db mouse assessed as HbA1C level at 300 mg/kg, po qd administered 1 hr prior glucose challenge measured after 21 days by oral glucose tolerance test (reference value: 2.8%); format: functional
Mus musculus [49] = assay: Antidiabetic activity in db/db mouse assessed as reduction in glucose AUC at 300 mg/kg, po qd administered 1 hr prior glucose challenge measured after 21 days by oral glucose tolerance test relative to control; format: functional; design: scale not given: the % may be the effect or the level left

## CS(=O)(=O)c1ccc(-n2cc(Cl)c(OC3CCN(c4ncc(Cl)cn4)CC3)cc2=O)c(F)c1 [BMS-903452]
Rattus norvegicus [1]
  Activity: Active
Cynomolgus monkey
  Activity: Non-toxic
Rattus norvegicus [2]
  Cmax: 2.7 µM
Rattus norvegicus [3]
  t1/2: 0.367 h
Homo sapiens [4]
  Activity: inactive
Homo sapiens [5]
  Activity: 50%
[6]
  clearance: 1.5 mL/min/kg
Salmonella typhimurium
  Activity: Non-toxic
Mus musculus [7]
  Activity: 36%
Homo sapiens [8]
  Activity: 20%
Mus musculus [9]
  Activity: 39%
Mus musculus [10]
  Activity: 37%
[11]
  Vd: 2.2 L/kg
Mus musculus [12]
  Activity: 18%
Mus musculus [13]
  Activity: 14%
Homo sapiens [14]
  Activity: Non-toxic
Oryctolagus cuniculus
  Activity: Non-toxic
[15]
  EC50: > 50 µM
[16]
  fraction unbound: 0.005
[17]
  half-life: 1.4 h
Mus musculus [18]
  Activity: Active
Rattus norvegicus [19]
  AUC: 95 µM·h
Homo sapiens [20]
  Activity: Dose-dependent effect
Rattus norvegicus [21]
  Tmax: 4 h
HepG2
  Activity: Non-toxic
Mus musculus [22]
  Activity: 13%
[23]
  solubility: < 1 µg/mL
[24]
  bioavailability: 33%
Mus musculus [25]
  Activity: 40%
Rattus norvegicus [26]
  Activity: Active
Mus musculus [27]
  Activity: 38%
[28]
  half-life: 36 h
[29]
  half-life: 0.25 h
[30]
  bioavailability: 87%
[31]
  EC50: 0.014 µM
[32]
  IC50: > 40 µM
[33]
  solubility: 41 µg/mL (≈ 79.9 µM)

## CCCc1cnc(N2CCC(Oc3ccn(-c4ccc(S(C)(=O)=O)cc4F)c(=O)c3)CC2)nc1
[34]
  solubility: 630 µg/mL (≈ 1290 µM)
hERG (KCNH2)
  inhibition at 10 µM: 47%
[35]
  Papp: 22 ×10⁻⁶ cm/s
Mus musculus [36]
  Activity: 32%
[37]
  Papp: 32 ×10⁻⁶ cm/s
Mus musculus [38]
  Activity: 1.4%
[39]
  fraction unbound: 0.01
Mus musculus [40]
  Activity: 0.4%
[41]
  AUC: 245 µM·h
[15]
  EC50: > 50 µM
[42]
  Cmax: 38.6 µM
[43]
  half-life: 2.4 h
HepG2
  Activity: Non-toxic
Mus musculus [44]
  Activity: 0.6%
[45]
  Intrinsic activity: 1
Mus musculus [46]
  Activity: 38%
Mus musculus [47]
  Activity: 16%
[31]
  EC50: 0.018 µM
[32]
  IC50: > 40 µM

## CN(C)C(=N)NC(=N)N [METFORMIN]
Mus musculus [48]
  Activity: 1.4%
Mus musculus [49]
  Activity: 83%
